The values that follow come from US12084698B2, “Virus-like particles and use thereof” (priority 2018, dated 2024).

Experiment [1] has as its system DNA (700 bp) including a dystrophin target sequence. As to the kind of experiment: In vitro DNA cleavage activity of VLP lysate. The format is biochemical, human. As to conditions: VLPs prepared in presence or absence of AP21967. Here is the method:
Thereafter, in order to test the amount of the Cas9 protein contained in VLPs, in vitro DNA cleavage activity was measured. Specifically, Lysis buffer was added to each of the concentrated VLPs, and the mixture was left to stand on ice for 10 minutes so that the VLPs were lysed.
After the reaction, in order to remove sgRNA, RNase A was added thereto and reacted at 37° C. for 30 minutes. Furthermore, in order to remove proteins, proteinase K was added thereto and reacted at 50° C. for 20 minutes.
Then, these samples were subjected to electrophoresis using 2200 TapeStation (high sensitivity D1000 TapeScreen, Agilent Technologies, Inc.), and the proportion of cleaved DNA including the dystrophin target sequence was measured.

Experiment [2] relates to DMD gene. As to the kind of experiment: T7EI assay in HEK293T EGxxFP cells expressing sgRNA DMD #1. As to conditions: VLPs prepared in presence or absence of AP21967. The class given is cell-based, human. Here is the method: By using MonoFas Genomic DNA Extraction kit (GL Sciences Inc.), genomic DNA was recovered from the cultured cells according to the protocol. Then, PCR was performed using 100 ng of the genomic DNA, primers for the regions to be amplified, and PrimeSTAR GXL DNA Polymerase (Takara Bio Inc.), and the PCR product was purified using Wizard SV Gel and PCR Clean-up System (Promega Corporation).
Subsequently, 400 ng of the PCR product was thermally denatured in NEBuffer 2.1 (New England Biolabs) at 95° C. for 5 minutes and then reannealed by slow cooling. The PCR product was cooled to 85° C. from 95° C. at −2° C./sec and then to 25° C. from 85° C. at −0.1° C./sec. Subsequently, 10 units of T7 endonuclease I (T7EI) enzyme was added thereto and reacted at 37° C. for 15 minutes. Thereafter, 6 mM of EDTA was added thereto so that the reaction stopped. Then, the cleavage products were analyzed using DS1000 High Sensitivity Screen Tape and Tape Station 2200 (Agilent Technologies, Inc.).
Then, the cleavage activity for the target DMD gene on the genome was measured by T7EI assay.
After 3 days, genomic DNA was extracted from each of the cells. Subsequently, the target region of the DMD gene on the genome was amplified by PCR. Thereafter, the PCR product was purified using columns, and by using 400 ng of the obtained DNA, mutation introduction efficiency was measured by T7EI assay.

The test system of experiment [3] is EGxxFP reporter construct in HEK293T EGxxFP cells. The experiment is described as follows: SSA-EGFP (EGxxFP) reporter experiment, flow cytometry of GFP-positive cells. The conditions noted are these: VLPs prepared at 0, 3, 30, 300 nM AP21967; 5×10^4 cells; 3 days. The format is cell-based, human. As to the method:
The HEK293T EGxxFP cells were seeded on a 48-well plate at 2.5×10^4 to 5.0×10^4 cells/well. On the next day, the VLP solution was added thereto, and then after 3 days, the fluorescence of EGFP was analyzed using an LSR3 flow cytometer.
FIG. 2 is a schematic view illustrating an SSA-EGFP (hereinafter, called “EGxxFP” in some cases) reporter experiment. As cells, HEK293T cells were used which constantly express sgRNA targeting the human Dystrophin (DMD) gene and have genome into which the EGxxFP reporter construct (SEQ ID NO: 21) was inserted. The EGxxFP reporter construct is a construct designed by inserting a sequence including the target sequence of the sgRNA into the EGFP cDNA sequence, so that a functional EGFP protein is not expressed.
Then, the cleaved EGFP cDNA is repaired by single-strand annealing (SSA). As a result, functional EGFP is expressed, and the fluorescence of EGFP can be observed. In this experimental system, by quantifying the fluorescence of EGFP in the cells by using a flow cytometer, it is possible to evaluate the target gene cleavage efficiency (genome editing efficiency) of the Cas9 protein in cell populations.
Then, the prepared VLPs (15 μL) were introduced into the HEK293T EGxxFP reporter cells (5×10^4 cells expressing sgRNA). Subsequently, after 3 days, the proportion of GFP-positive cells was analyzed with a flow cytometer.
(In flow cytometry, cells or beads pass a laser one at a time.)

In experiment [4] the target is HIV protease (Human immunodeficiency virus type 1 group M subtype B, UniProt P04585). As to conditions: Darunavir added to cells in preparing VLPs.
Method: First, in the presence or absence of Darunavir (HIV protease inhibitor), VLPs (FIGS. 1(a) and 1(b)) were prepared which were constituted with wild-type Gag-Pol^HIV or FKBP12-Gag-Pol^HIV derived from HIV and encapsulated a Cas9 protein fused with an FRB domain (hereinafter, called “FRB-Cas9 protein” in some cases).
Subsequently, FKBP12-Gag-Pol^HIV and the HA-tagged FRB-Cas9 protein in each of the above VLPs were quantified by Western blotting.

Take `CO[C@H]1[C@@H](O)[C@H](C)C[C@H](C)/C=C/C=C/C=C(\C)[C@@H](c2c[nH]c3c(C)cccc23)C[C@@H]2CC[C@@H](C)[C@@](O)(O2)C(=O)C(=O)N2CCCC[C@H]2C(=O)O[C@H]([C@H](C)C[C@@H]2CC[C@@H](O)[C@H](OC)C2)C[C@H](O)[C@H](C)/C=C(\C)[C@H]1O` [AP21967, C-16-(S)-7-methylindole rapamycin]: the “encapsulation of Cas9 in VLPs on addition of AP21967” value in experiment [1] and in experiment [2] was “more efficiently encapsulated” each time. In addition, the “genome editing efficiency (proportion of GFP-positive cells)” value in experiment [3] was “increases depending on the AP21967 concentration”.
Take `CC(C)CN(C[C@@H](O)[C@H](Cc1ccccc1)NC(=O)O[C@H]1CO[C@H]2OCC[C@H]21)S(=O)(=O)c1ccc(N)cc1` [Darunavir]: the “cleavage of Gag protein and degradation of Cas9 protein in VLPs” value in experiment [4] is on record as “inhibited”.
